The source of these data is PubChem BioAssay (NCI).

Some test systems named below: KM12 colon; SF-295 CNS; CAKI-1 renal; PC-3 prostate; LOX IMVI melanoma; SK-OV-3 ovarian; BT-549 breast; RXF 393 renal; SNB-19 CNS; HL-60(TB) leukemia.
What all share (test): inhibition of tumour cell growth, NCI panel, 48 h

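Cells were grown in 96-well plates and exposed to each compound for 48 hours at five concentrations; endpoints were interpolated linearly between bracketing concentrations, or set to the highest concentration if not reached. GI50 is the concentration that inhibits growth by half. TGI: total growth inhibition.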

On to `COc1cc(C)c(Cl)cc1C1=NN(c2ccc(S(N)(=O)=O)cc2)C(/C=C/c2ccccc2)C1` (stereo unspecified), for which the GI50 in the test with KM12 colon was 3.4 µM; in the test with SF-295 CNS, 3.17 µM; with CAKI-1 renal it was 2.7 µM; in the test on PC-3 prostate, 3.11 µM; with LOX IMVI melanoma it was 1.67 µM; in the test on SK-OV-3 ovarian, 3.74 µM. Also, the GI50 in the test on BT-549 breast was 2.35 µM; in the test with RXF 393 renal it was 1.71 µM; with SNB-19 CNS, 8.08 µM; in the test with HL-60(TB) leukemia, 3.6 µM. In addition, the TGI with KM12 colon is 14.8 µM; in the test on SF-295 CNS, 13.6 µM; with CAKI-1 renal it was 19.1 µM; with PC-3 prostate, 13.8 µM; in the test with LOX IMVI melanoma, 3.21 µM; with SK-OV-3 ovarian, 16.2 µM. The TGI was 4.76 µM with BT-549 breast, 3.5 µM with RXF 393 renal, more than 100 µM with SNB-19 CNS and 16 µM in the test on HL-60(TB) leukemia.
On to `CCn1c(CN2CCN(Cc3ccccc3)CC2)nc2cc(NC(=O)c3cccs3)ccc21`, for which the GI50 with KM12 colon is 14.8 µM; with SF-295 CNS, 16.7 µM; in the test with CAKI-1 renal it was 18 µM; with PC-3 prostate, 20.8 µM; in the test on LOX IMVI melanoma, 19.4 µM; in the test on SK-OV-3 ovarian, 25.7 µM. Moreover, the GI50 in the test on BT-549 breast is 13.4 µM; in the test with RXF 393 renal it was 12.5 µM; with SNB-19 CNS, 27.7 µM; with HL-60(TB) leukemia, 20.5 µM. Moreover, the TGI is 32 µM in the test on KM12 colon; 34.7 µM in the test on SF-295 CNS; 63 µM in the test with CAKI-1 renal; more than 100 µM in the test with PC-3 prostate; 41.7 µM with LOX IMVI melanoma; 71.6 µM in the test with SK-OV-3 ovarian. The TGI was 28.9 µM with BT-549 breast, 33.1 µM with RXF 393 renal, more than 100 µM in the test with SNB-19 CNS and 60.9 µM in the test on HL-60(TB) leukemia.
Consider `O=C(c1ccco1)c1nc2cc(Cl)ccc2[n+]([O-])c1C(F)(F)F`, for which the GI50 is 29.3 µM in the test on KM12 colon; 94 µM with SF-295 CNS; 28.3 µM in the test on CAKI-1 renal; 13.7 µM in the test with PC-3 prostate; 48.4 µM in the test on LOX IMVI melanoma; more than 100 µM in the test with SK-OV-3 ovarian. Further, the GI50 in the test with BT-549 breast is 35.1 µM; in the test with RXF 393 renal it was 19.5 µM; in the test on SNB-19 CNS, 69 µM; with HL-60(TB) leukemia it was 24.3 µM. Also, the TGI with KM12 colon is more than 100 µM; with SF-295 CNS, more than 100 µM; in the test on CAKI-1 renal it was 73.9 µM; in the test on PC-3 prostate, 41.4 µM; with LOX IMVI melanoma, more than 100 µM; in the test on SK-OV-3 ovarian it was more than 100 µM. In addition, the TGI in the test on BT-549 breast is more than 100 µM; in the test on RXF 393 renal it was 59.2 µM; with SNB-19 CNS it was more than 100 µM; with HL-60(TB) leukemia, 46.8 µM.
In the case of `C/C(=N\Nc1cc(C)c2cc(C)ccc2n1)c1ccccn1`, the GI50 in the test with KM12 colon is 0.0772 µM; in the test with LOX IMVI melanoma, 0.0744 µM; in the test on SK-OV-3 ovarian, 0.0743 µM; with BT-549 breast, 0.276 µM; in the test with RXF 393 renal it was 0.113 µM; in the test on SNB-19 CNS it was 0.145 µM. In addition, the GI50 with HL-60(TB) leukemia is less than 0.0431 µM. Further, the TGI with KM12 colon was determined as 1.79 µM; in the test with SF-295 CNS, 0.278 µM; in the test on CAKI-1 renal it was 0.261 µM; in the test on PC-3 prostate it was 2.32 µM; with LOX IMVI melanoma, 1.23 µM; in the test with SK-OV-3 ovarian, 7.21 µM. The TGI in the test on BT-549 breast came out at 17.2 µM; in the test with RXF 393 renal, 1.53 µM; in the test on SNB-19 CNS, 13.7 µM; with HL-60(TB) leukemia it was 0.129 µM.
`CCOC(=O)N1CCc2cc(OC)c(OC)c3c2c1cc1cc(OC)c(OC)cc13`: the TGI in the test on KM12 colon is 67.7 µM; in the test on SF-295 CNS, 35.2 µM; with CAKI-1 renal it was 84.2 µM; in the test on PC-3 prostate, more than 100 µM; in the test on LOX IMVI melanoma it was 52.3 µM; in the test on SK-OV-3 ovarian it was more than 51.1 µM. Besides, the TGI in the test with BT-549 breast was 3.65 µM; in the test with RXF 393 renal it was 12.1 µM; with SNB-19 CNS it was more than 100 µM; with HL-60(TB) leukemia, more than 100 µM.
With `O=C(Nc1cccc(Cl)c1)c1ccc(NC2=C(Cl)C(=O)N(Cc3ccccc3)C2=O)cc1`, the GI50 is more than 38.3 µM in the test on KM12 colon; 17.7 µM in the test on SF-295 CNS; 14.7 µM with CAKI-1 renal; 9.48 µM with PC-3 prostate; 4.24 µM in the test on LOX IMVI melanoma; 43.6 µM in the test on SK-OV-3 ovarian. The GI50 with BT-549 breast is 8.33 µM; with RXF 393 renal, 9.55 µM; with SNB-19 CNS, 21.5 µM; in the test on HL-60(TB) leukemia, 3.79 µM. Further, the TGI in the test on KM12 colon was more than 56.2 µM; in the test on SF-295 CNS it was 56.9 µM; in the test with CAKI-1 renal, 50.8 µM; in the test with PC-3 prostate it was 24.1 µM; with LOX IMVI melanoma, 9.27 µM; with SK-OV-3 ovarian, more than 95.5 µM. The TGI in the test with BT-549 breast is 31.5 µM; in the test with RXF 393 renal it was 24.7 µM; in the test on SNB-19 CNS, more than 59.2 µM; with HL-60(TB) leukemia, 15.2 µM.
Consider `COc1cc(-c2nn(-c3cccc(NC(=O)Nc4cc(C(F)(F)F)cc(C(F)(F)F)c4)c3)cc2-c2ccncc2)ccc1Cl`, for which the GI50 with KM12 colon was 0.412 µM; with SF-295 CNS, 0.241 µM; in the test with CAKI-1 renal it was 0.852 µM; in the test with PC-3 prostate, 0.176 µM; in the test on LOX IMVI melanoma, 0.783 µM; in the test on SK-OV-3 ovarian, 1.16 µM. For the same compound, the GI50 in the test with BT-549 breast was 1.26 µM; with RXF 393 renal, 0.841 µM; in the test on SNB-19 CNS, 0.59 µM; in the test on HL-60(TB) leukemia it was 0.551 µM. Moreover, the TGI in the test with KM12 colon stood at 2.09 µM; in the test on SF-295 CNS, 0.921 µM; in the test with CAKI-1 renal, 2.93 µM; with PC-3 prostate, 1.18 µM; in the test on LOX IMVI melanoma, 1.52 µM; with SK-OV-3 ovarian, 2.87 µM. For the same compound, the TGI in the test on BT-549 breast was 3.45 µM; in the test on RXF 393 renal it was 2.15 µM; in the test with SNB-19 CNS it was 4.25 µM; with HL-60(TB) leukemia, 11.9 µM.
Regarding `CC(C)[C@H](CO)Nc1nc(Nc2ccc(C(=O)NCCNS(=O)(=O)c3cccc4c(N(C)C)cccc34)c(Cl)c2)c2ncn(C(C)C)c2n1`, the GI50 in the test on KM12 colon was 0.447 µM; in the test on SF-295 CNS it was 1.75 µM; in the test on CAKI-1 renal, 5.78 µM; in the test on PC-3 prostate, 3.56 µM; in the test on LOX IMVI melanoma it was 2.71 µM; in the test on SK-OV-3 ovarian, more than 100 µM. The GI50 is 1.96 µM in the test on BT-549 breast, 0.381 µM in the test with RXF 393 renal, 2.93 µM in the test on SNB-19 CNS and 2.65 µM with HL-60(TB) leukemia. The TGI in the test on KM12 colon was 2.72 µM; in the test on SF-295 CNS it was more than 100 µM; in the test on CAKI-1 renal it was more than 100 µM; in the test with PC-3 prostate, more than 100 µM; with LOX IMVI melanoma it was more than 100 µM; in the test with SK-OV-3 ovarian it was more than 100 µM. In addition, the TGI with BT-549 breast was 7.46 µM; with RXF 393 renal it was 1.78 µM; in the test on SNB-19 CNS, more than 100 µM; in the test on HL-60(TB) leukemia, 7.43 µM.
Regarding `CC(C)(O)CS(=O)(=O)Nc1ccc2c(c1)CCN(C(=O)COc1cccnc1)C2`, the GI50 with KM12 colon was 0.277 µM; with SF-295 CNS, more than 61.6 µM; in the test with CAKI-1 renal, more than 92.4 µM; in the test with PC-3 prostate it was 1.06 µM; with LOX IMVI melanoma, more than 100 µM; with SK-OV-3 ovarian it was more than 100 µM. Further, the results for the GI50 in the test with BT-549 breast, with RXF 393 renal and in the test on HL-60(TB) leukemia were 2.33 µM, more than 100 µM and more than 100 µM, respectively. For the same compound, the TGI in the test with KM12 colon, in the test on SF-295 CNS, with CAKI-1 renal, in the test with PC-3 prostate, in the test with LOX IMVI melanoma and in the test on SK-OV-3 ovarian was more than 100 µM in each case. In addition, the TGI with BT-549 breast, in the test with RXF 393 renal, with SNB-19 CNS and with HL-60(TB) leukemia was more than 100 µM each time.
Take `CCCc1cc2c(=O)c(C(=O)OC)c[nH]c2cc1N(CC)CC`: the GI50 with KM12 colon was 45.5 µM; with SF-295 CNS it was 8.16 µM; in the test with CAKI-1 renal, 11.7 µM; in the test with PC-3 prostate it was 23.3 µM; with LOX IMVI melanoma it was 25.8 µM; with SK-OV-3 ovarian it was 36.5 µM. Also, the GI50 in the test on BT-549 breast was 39.8 µM; in the test with RXF 393 renal, 31.4 µM; in the test on SNB-19 CNS, 28.6 µM; in the test with HL-60(TB) leukemia it was 62.5 µM. Also, the TGI is more than 100 µM in the test with KM12 colon; 24.8 µM in the test with SF-295 CNS; 29.1 µM in the test on CAKI-1 renal; more than 100 µM in the test on PC-3 prostate; 77.9 µM in the test with LOX IMVI melanoma; more than 100 µM in the test with SK-OV-3 ovarian. Moreover, the TGI in the test with BT-549 breast is more than 100 µM; in the test on RXF 393 renal, 85 µM; in the test with SNB-19 CNS, 77.8 µM; with HL-60(TB) leukemia it was more than 100 µM.
On to `N[C@@H]1CCCC[C@H]1N.O=C([O-])C(=O)[O-].[Pt+4]`, for which the GI50 in the test with KM12 colon was 10.9 µM; in the test with SF-295 CNS it was 4.71 µM; in the test with CAKI-1 renal, 0.765 µM; in the test with PC-3 prostate, 17.9 µM; in the test with LOX IMVI melanoma it was 1.13 µM; with SK-OV-3 ovarian it was more than 66.2 µM. Also, the GI50 in the test on BT-549 breast was 12.3 µM; in the test on RXF 393 renal, 8.13 µM; in the test with SNB-19 CNS it was 9.85 µM; in the test on HL-60(TB) leukemia, 2.83 µM. The TGI was more than 100 µM with KM12 colon; more than 100 µM in the test on SF-295 CNS; 39.3 µM in the test with CAKI-1 renal; more than 100 µM in the test with PC-3 prostate; more than 100 µM with LOX IMVI melanoma; more than 100 µM with SK-OV-3 ovarian. For the same compound, the TGI was more than 100 µM in the test with BT-549 breast, more than 39.8 µM in the test on RXF 393 renal, more than 100 µM in the test with SNB-19 CNS and more than 100 µM in the test with HL-60(TB) leukemia.
